According to the NIST ThermoML archive (doi:10.1021/je0505164):
Numbers after ± are expanded uncertainties.

Conditions: Liquid; for mass density: 298.15 K, 101.33 kPa; for Normal boiling temperature: Ebulliometric method (Recirculating still)

SMILES	mass density [kg/m3]	Normal boiling temperature [°C]
CCO [ethanol]	785.1 ± 0.3	78.31 ± 0.2
CCCO [propan-1-ol]	799.6 ± 0.3	97.06 ± 0.2
CC(C)O [propan-2-ol]	780.8 ± 0.3	82.24 ± 0.2
